Values after ≈ are worked out from the molar mass of the structure shown.
Assays:
Experiment in all cases: cells
[1] = system: WI-38 cells; conditions: for IC50: Homo sapiens, WI-38, 48 h, read-out: IC50 against WI-38; for IC50 against WI-38: WST-1, 48 h, mean ± SD (n = 6)
Description: (§1) Cell viability were analysed using the WST-1 cell proliferation reagent according to the earlier described technique. All cells (1 × 10^4 cells/well) were treated for 48 h with concentrations ranging from 0–200 µg/ml of ETME, ascorbic acid, catechin, tannic acid, reserpine, methyl gallate and rutin. Cell proliferation and viability were measured by measuring absorbance of the coloured product spectrophotometrically at 460 nm using a microplate ELISA reader […] EX (Thermo Electron Corporation, USA).
(§2) All spectrophotometric data were presented as the mean six times ±SD and cell cycle and ROS analysis data by FACS was introduced as the mean three times ±SD. The statistical analysis was determined by KyPlot version 2.0 beta 15 (32 bit). […] The IC50 values were compared by paired t test. P < 0.05 was considered significant.

[2] = system: A549 cells; conditions: for IC50: Homo sapiens, A549, 48 h, read-out: IC50 against A549; for IC50 against A549: WST-1, 48 h, mean ± SD (n = 6)
Description: as §1, §2

[3] = system: MCF-7 cells; conditions: for IC50: Homo sapiens, MCF7, 48 h, read-out: IC50 against MCF-7; for IC50 against MCF-7: WST-1, 48 h, mean ± SD (n = 6)
Description: as §1, §2

| Compound | IC50 [2] [µg/mL] | IC50 [3] [µg/mL] | IC50 against A549 [2] [µg/mL] | IC50 against MCF-7 [3] [µg/mL] | cytotoxicity against WI-38 cells [1] | IC50 [1] [µg/mL] | cytotoxicity against A549 cells [2] | cytotoxicity against MCF-7 cells [3] | IC50 against WI-38 [1] [µg/mL] |
| --- | --- | --- | --- | --- | --- | --- | --- | --- | --- |
| O.Oc1cc(O)c2c(c1)O[C@H](c1ccc(O)c(O)c1)[C@@H](O)C2 [Catechin] | – | – | 4010.65 ± 1849.57 | 256.52 ± 17.14 | negligible cytotoxicity | – | negligible cytotoxicity | toxic | 753.56 ± 31.99 |
| COC(=O)c1cc(O)c(O)c(O)c1 [Methyl gallate] | 77.2 ± 1.82 (≈ 420 µM) | 53 ± 1.91 (≈ 288 µM) | – | – | promissive cytotoxicity | 344 ± 31.3 (≈ 1870 µM) | promissive cytotoxicity | promissive cytotoxicity | – |
| O=C1O[C@H]([C@@H](O)CO)C(O)=C1O [Ascorbic acid, reference compound] | 6020 ± 3440 (≈ 34200 µM) | 79.1 ± 2.2 (≈ 449 µM) | – | – | negligible cytotoxicity | 6800 ± 2250 (≈ 38600 µM) | negligible cytotoxicity | toxic | – |

More lines, main results first:

| IC50 [2] [µg/mL] | IC50 [3] [µg/mL] | IC50 against A549 [2] [µg/mL] | IC50 against MCF-7 [3] [µg/mL] | Compound | cytotoxicity against WI-38 cells [1] | IC50 [1] [µg/mL] | cytotoxicity against A549 cells [2] | cytotoxicity against MCF-7 cells [3] | IC50 against WI-38 [1] [µg/mL] |
| --- | --- | --- | --- | --- | --- | --- | --- | --- | --- |
| 4180 ± 1610 (≈ 6840 µM) | 271 ± 9.85 (≈ 444 µM) | – | – | C[C@@H]1O[C@@H](OC[C@H]2O[C@@H](Oc3c(-c4ccc(O)c(O)c4)oc4cc(O)cc(O)c4c3=O)[C@H](O)[C@@H](O)[C@@H]2O)[C@H](O)[C@H](O)[C@H]1O [Rutin] | negligible cytotoxicity | 1230 ± 195 (≈ 2020 µM) | negligible cytotoxicity | toxic | – |
| – | – | 302.25 ± 11.86 | 97.24 ± 4.89 | Tannic acid | promissive cytotoxicity | – | promissive cytotoxicity | promissive cytotoxicity | 308.32 ± 8.32 |
| 68.5 ± 1.73 (≈ 112 µM) | 57.3 ± 2.29 (≈ 94.1 µM) | – | – | COC(=O)[C@H]1[C@H]2C[C@@H]3c4[nH]c5cc(OC)ccc5c4CCN3C[C@H]2C[C@@H](OC(=O)c2cc(OC)c(OC)c(OC)c2)[C@@H]1OC [Reserpine, reference compound] | promissive cytotoxicity | 50.5 ± 1.48 (≈ 82.9 µM) | promissive cytotoxicity | promissive cytotoxicity | – |

From article PMC4928336, “A microalga, Euglena tuba induces apoptosis and suppresses metastasis in human lung and breast carcinoma cells through ROS-mediated regulation of MAPKs” (Cancer Cell International, 2016)
